Like-named read-outs stand apart in the source and are kept apart here. Where no end group is shown, it is not given here.

Broadly, the Solubility is how much of the substance goes into solution per volume. Usually solubility stands for how much of the substance goes into solution per volume. A higher solubility goes with much dissolved substance.

A short description of data set [1]: Thermogravimetric analysis overlaid with DSC. Particulars: after boiling at ~190 °C (melting at ~130 °C).
Protocol: Thermogravimetric Analysis (TGA) was performed for ammonium acetate and ammonium TFA using a TA Thermogravimetric Analyzer Q500 (TA, Instruments, New Castle, DE, USA). Standard aluminum pans were filled with about 5–7 mg of powder. Temperature ramp experiments were performed from 30 °C to 300 °C at a rate of 5 °C·min^−1 with a nitrogen purge at 50 mL·min^−1.
Differential scanning calorimetry (DSC) analysis was performed using a TA Instruments 175 Model Auto Q20 DSC. Samples of 5–7 mg were weighed and placed into standard aluminum pans. The scans were performed at a ramp rate of 5 °C·min^−1 in the range of 30–300 °C. During the analyses, high-purity nitrogen flowed through the sample chamber at a rate of 50 mL·min^−1.
The conditions of data set [2]: cited from earlier work.
A short description of data set [3]: Water sorption-desorption isotherm (dynamic vapor sorption). The settings on record: bulk powder, 25 °C, sorption-desorption cycle. In kind it is physicochemical. The protocol: Water sorption isotherms at 25 °C were determined for lyophilized formulations using a dynamic vapor sorption (DVS-1) microbalance (Surface Measurement Systems, London, UK). A quartz pan was filled with about 8–10 mg of powder. Samples were dried with nitrogen gas until a baseline was established less than 0.002% change in dm/dt for 120 min. Each formulation was run through a full sorption-desorption cycle from 0% to 90% RH in steps of 10% RH at 25 °C. Humidity was increased/decreased by 10% after equilibrium was reached, as determined by a dm/dt less than 0.0075% within an interval of 5 min. Sorption-desorption isotherms were calculated and plotted based on their percent change in mass compared to the initial dry formulation weight (Equation (2)):(2) % Mass sorption/desorption =(Increase or decrease in mass from water sorption/desorption/mass of dry powder at initial equilibration (0% RH))× 100

A short description of a further data set: physchem. In kind it is physicochemical. On the procedure:
The samples were shaken on a vortex mixer for 5 min and on an orbital shaker at 100 rpm for 3 h. The samples were collected and centrifuged at 12,000 rpm for 15 min. The supernatants of the samples were collected and analyzed using HPLC as described in Section 2.6 below.
(§1) CSP7 was chemically analyzed with a Thermo Scientific™ Dionex™ UltiMate™ 3000 HPLC System (Thermo Scientific, Sunnyvale, CA, USA) with a wavelength of 220 nm. The two mobile phases were designated Phase A (0.1% trifluoroacetic acid in water) and Phase B (0.09% trifluoroacetic acid in a mixture of 20:80 water and acetonitrile). The HPLC gradient that operated at 1.0 mL·min^−1 ran from 25% to 35% for mobile Phase B for 20 min then equilibrated at 25% for 5 min. An Ultimate 3000 Autosampler was utilized to inject 20 μL samples. Injections were passed through a Phenomenex® Luna 5 μm C18(2) 100 Å, 150 mm × 4.6 mm (Phenomenex, Torrance, CA, USA), maintained at ambient temperature. The retention time of CSP7 was approximately 8.3 min. The standard curve of the CSP7 (concentrations of 0.015625–1.00 mg·mL^−1) were prepared. All analyses maintained linearity in the range tested. Chromeleon Version 6.80 software (Thermo Scientific) was used to process all chromatography data.

Data set [4] is described as follows: Solution storage stability (HPLC recovery). It is filed as physicochemical. The protocol:
(§2) The peptide solution was prepared in DPBS and TBS at 0.5 mg·ml^−1 of free peptide. The ammonium hydroxide was added to the solution to dissolve the peptide until a clear solution was obtained.
The peptide solutions were stored at −80 °C, −20 °C, 2−8 °C, and at room temperature (25 °C). The samples were collected after 24 h and 48 h and analyzed using HPLC as described in Section 2.6 below.
as §1

Data set [5] is classed as physicochemical. The protocol: as §2
Freeze-thaw cycles were studied at −20 °C and −80 °C. The peptide solutions were frozen at each temperature for 1 h and then thawed at room temperature (25 °C) for 1 h. The freeze-thaw cycle was repeated for 5 cycles. The samples were collected at the end of each cycle and analyzed using HPLC as described in Section 2.6 below.
as §1

The nature of data set [6]: Molar ratio of counterions to CSP7 by solution 1H/19F NMR. It is filed as physicochemical. Particulars: bulk powder, initial vs after exposure to 90% RH, Equation (6). On the procedure:
We acquired ^1H-NMR spectra using a Varian® NMR 600 MHz Spectrometer (Agilent Inc., Palo Alto, CA, USA) at 25 °C. The lyophilized samples were reconstituted in deuterium oxide at 1.0 mg·mL^−1. We added 5 μL of 1 N NaOH/D2O was added to the sample to dissolve the peptides. Solutions were then transferred to 5 mm NMR tubes for NMR data acquisition. Chemical shifts were referenced to a residual solvent, H2O, at 4.61 ppm. At this time, the ^1H-NMR spectra were acquired using an Agilent Direct Drive 600 spectrometer, operating at a proton frequency of 599.75 MHz (14.1 T) at 298 K, equipped with an AutoX DB probe. All ^1H-NMR spectra were recorded in D2O after 128 cycles for each sample. The molar ratio of counterion to peptide was calculated according to the peak area of the methyl group of CSP7 (0.85, 0.93, and 1.03 ppm; 18 H atoms in total) and the methyl group of the acetate counterion (1.75 ppm; 3 H atoms). […]
We acquired ^19F-NMR spectra using a Varian® NMR 600 MHz Spectrometer (Agilent Inc., Palo Alto, CA, USA) at 25 °C. […] All ^19F NMR spectra were recorded in D2O after 512 cycles for each sample. The molar ratio of counterion to peptide was calculated according to the peak area of fluorine atoms of the trifluoroacetate counterion (−75.5 ppm, 3 F atoms) and the […] (−107.7, −110.9, and −133.5 ppm; 1F atom each). […]

The format of data set [7] is physicochemical. Particulars: DPBS; for Recovery of CSP7 in the aggregates / Recovery of CSP7 in the supernatant: 12 h shaking. The protocol: as §2
The peptide solutions were shaken on a VWR standard orbital shaker model 1000 (Radnor, PA, USA) at 200 rpm at 5 °C and 25 °C. The samples were collected at 0.5, 1, 3, 6, and 12 h, and they were analyzed using HPLC as described in Section 2.6 below. The CSP7 aggregates were also collected and analyzed using ^1H-NMR as described in Section 2.14 below.
as §1

Regarding `N.O=C(O)C(F)(F)F` [ammonium TFA], the “Mass remaining in TGA” value in data set [1] was 0%.

With `CC(=O)O.N` [ammonium acetate], the Vapor pressure in data set [2] (at 25 °C) is listed as 13.9 mm Hg. For the same molecule, the Boiling point in data set [2] was 138.5 °C.

For the molecule FTTFTVT [CSP7 TFA], in data set [3], the “Decrease in weight in moisture desorption isotherm compared to initial weight” value was “no change in weight”. This molecule also yielded a Solubility in the data set “physchem” (3 h, pH 10) of 4.134 ± 0.320 mg/mL. The solubility at 3 h in the data set “physchem” (pH 8, Solubility) amounted to 1220 ± 24 µg/mL.

As for FTTFTVT [CSP7 acetate], the “Recovery in bulk solution after storage” value in data set [4] (DPBS, 24 h, 5 °C) was determined as 99.9 ± 0.1%; in data set [4] (DPBS, 24 h, 25 °C) it was 100.1 ± 0.1%; in data set [4] (DPBS, 24 h, −20 °C), 100.2 ± 0.8%; in data set [4] (DPBS, 24 h, −80 °C), 100.0 ± 0.1%; in data set [4] (DPBS, 48 h, 5 °C) it was 99.9 ± 0.1%; in data set [4] (DPBS, 48 h, 25 °C), 99.9 ± 0.3%. For the same molecule, the “Recovery in bulk solution after storage” value in data set [4] (DPBS, 48 h, −20 °C) was 100.3 ± 0.7%; in data set [4] (DPBS, 48 h, −80 °C), 100.0 ± 0.1%; in data set [4] (TBS, 24 h, 5 °C), 100.1 ± 0.2%; in data set [4] (TBS, 24 h, 25 °C) it was 100.2 ± 0.3%; in data set [4] (TBS, 24 h, −20 °C), 100.2 ± 0.2%; in data set [4] (TBS, 24 h, −80 °C), 100.1 ± 0.2%. Also, the “Recovery in bulk solution after storage” value is listed as 100.1 ± 0.1% in data set [4] (TBS, 48 h, 5 °C); 100.3 ± 0.1% in data set [4] (TBS, 48 h, 25 °C); 100.5 ± 0.2% in data set [4] (TBS, 48 h, −20 °C); 100.5 ± 0.4% in data set [4] (TBS, 48 h, −80 °C). In data set [4] (after 48 h storage at −80 °C, −20 °C, 5 °C and 25 °C), the “Recovery of CSP7 in DPBS and TBS” value was “about 100%”. Further, the “Decrease in weight in moisture desorption isotherm compared to initial weight” value in data set [3] is listed as 6.36%. For the same molecule, the “CSP7 remaining in DPBS and TBS” value in data set [5] is given as “about 100%”. Further, the “Recovery in bulk solution after freeze-thaw” value (“Recovery … after freeze-thaw” for short) in data set [5] (DPBS, −20 °C, cycle 1) amounted to 100.3 ± 0.2%; in data set [5] (DPBS, −20 °C, cycle 2), 100.7 ± 0.1%; in data set [5] (DPBS, −20 °C, cycle 3), 100.7 ± 0.1%; in data set [5] (DPBS, −20 °C, cycle 4), 101.0 ± 0.2%; in data set [5] (DPBS, −20 °C, cycle 5), 101.3 ± 0.2%; in data set [5] (DPBS, −80 °C, cycle 1), 99.8 ± 0.2%. In addition, the “Recovery … after freeze-thaw” value was 100.1 ± 0.1% in data set [5] (DPBS, −80 °C, cycle 2); 100.2 ± 0.2% in data set [5] (DPBS, −80 °C, cycle 3); 100.4 ± 0.1% in data set [5] (DPBS, −80 °C, cycle 4); 100.9 ± 0.1% in data set [5] (DPBS, −80 °C, cycle 5); 99.4 ± 0.3% in data set [5] (TBS, −20 °C, cycle 1); 99.6 ± 0.1% in data set [5] (TBS, −20 °C, cycle 2). Besides, the “Recovery … after freeze-thaw” value in data set [5] (TBS, −20 °C, cycle 3) is reported as 99.7 ± 0.2%; in data set [5] (TBS, −20 °C, cycle 4), 99.8 ± 0.2%; in data set [5] (TBS, −20 °C, cycle 5), 100.2 ± 0.1%; in data set [5] (TBS, −80 °C, cycle 1) it was 99.9 ± 0.3%; in data set [5] (TBS, −80 °C, cycle 2), 100.3 ± 0.2%; in data set [5] (TBS, −80 °C, cycle 3), 100.4 ± 0.2%. In addition, the “Recovery … after freeze-thaw” value in data set [5] (TBS, −80 °C, cycle 4) is given as 100.7 ± 0.2%; in data set [5] (TBS, −80 °C, cycle 5) it was 100.6 ± 0.4%. Further, the solubility at 3 h in “physchem” (pH 2, Solubility) stood at 701 ± 153 µg/mL; in the data set “physchem” (pH 3.5, Solubility), 241 ± 7 µg/mL; in “physchem” (pH 4.5, Solubility), 160 ± 3 µg/mL; in “physchem” (pH 5.5, Solubility) it was 174 ± 16 µg/mL; in the data set “physchem” (pH 6.5, Solubility), 178 ± 13 µg/mL; in “physchem” (pH 7.5, Solubility), 347 ± 14 µg/mL. Also, in the data set “physchem” (pH 10, Solubility), the solubility at 3 h amounted to 2880 ± 201 µg/mL. In data set [6], the “Percentage of mass loss calculated from NMR molar ratios of acetate to CSP7” value is listed as 6.37%. Further, the “Recovery of CSP7 in the aggregates” value came out at 31.7 ± 2.3% in data set [7] (5 °C) and 38.3 ± 2.8% in data set [7] (25 °C). Further, the “Recovery of CSP7 in the supernatant” value is recorded as 67.8 ± 5.8% in data set [7] (5 °C) and 59.7 ± 1.5% in data set [7] (25 °C). In data set [7] (orbital shaker, 5 °C and 25 °C), the “Shaking time after which peptide aggregation was found” value is on record as 6 h.

The values above are taken from article PMC6835953, “Formulation Composition and Process Affect Counterion for CSP7 Peptide” (Pharmaceutics, 2019).
